Where two headings read alike, the source gives them in different places. Marks after values point to notes of the source that are not given here.
Test system: store-operated Ca^2+ entry in PLP-B lymphocytes
Assay: Store-operated Ca2+ entry after thapsigargin depletion of ER Ca2+ stores in PLP-B lymphocytes
Type: cell-based
Conditions: PLP-B lymphocytes, % of inhibition (−) or activation; for inhibition at 10 µM / inhibition at 50 µM / inhibition at 100 µM: Lymphocyte
Method: The effects of the molecules developed were tested on PLP-B lymphocytes. Store-operated Ca^2+ entry was induced by depletion of Endoplasmic Reticulum Ca^2+ stores (ER Ca^2+ stores) with thapsigargin (Tg) in a Ca^2+-free medium and measured following the addition of 1.8 mM of CaCl2) in the extracellular medium. The results are compared to the results obtained for known SOCE inhibitors SKF-96365, GSK-7975A, Synta 66.

Compound | Effect on amplitude of SOCE peak (10 μM, DMSO control 100%) | Effect on amplitude of Tg Peak (10 μM, thapsigargin (Tg) peak) | Effect on amplitude of SOCE peak (50 μM, DMSO control 100%) [%] | Effect on amplitude of Tg Peak (50 μM, thapsigargin (Tg) peak) | Effect on amplitude of SOCE peak (100 μM, DMSO control 100%) [%] | Effect on amplitude of Tg Peak (100 μM, thapsigargin (Tg) peak) | inhibition at 10 µM (10 μM, DMSO control 100%, read-out: Effect on amplitude of SOCE Peak) [%] | inhibition at 10 µM (10 μM, thapsigargin (Tg) peak, read-out: Effect on amplitude of Tg Peak) [%] | inhibition at 50 µM (50 μM, DMSO control 100%, read-out: Effect on amplitude of SOCE Peak) [%] | inhibition at 50 µM (50 μM, thapsigargin (Tg) peak, read-out: Effect on amplitude of Tg Peak) [%] | inhibition at 100 µM (100 μM, DMSO control 100%, read-out: Effect on amplitude of SOCE Peak) [%] | inhibition at 100 µM (100 μM, thapsigargin (Tg) peak, read-out: Effect on amplitude of Tg Peak) [%]
1-(4-(Methoxymethoxy)-2-(trifluoromethyl)-1H-benzo[d]imidazole [6αaf VAL3.33] | 40.0# % | −29.0# % | 1.0 | −34.0# % | −2.0 | −38.0# % | – | – | – | – | – | –
COc1ccc(CCOc2ccccc2CCn2nc(C(F)(F)F)cc2C(F)(F)F)cc1 [6βz DAD 3.536] | – | – | – | – | – | – | 30 | 9 | 37 | 12 | 40 | 8

— patent US12686664B2, “SOCE inhibitors and therapeutic uses thereof” (Institut National de la Santé et de la Recherche Médicale …, priority 2020, dated 2026)
